Measured values as given in ChEMBL document CHEMBL1152282, “SAR profiles of spirocyclic nicotinamide derived selective HDAC1/HDAC2 inhibitors (SHI-1:2)” (Bioorg Med Chem Lett, 2008).
Values after ≈ are worked out from the molar mass of the structure shown.

Tests used:
[1] = Plasma clearance in dog at 0.90 mg/kg, iv; type: ADME, organism-based, Canis lupus familiaris; design: dose 0.9 mg/kg, route intravenous; conditions: 0.9 mg/kg
[2] = Half life in rat at 2.0 mg/kg, iv; type: ADME, organism-based; design: dose 2 mg/kg, route intravenous; conditions: in vivo
[3] = Oral bioavailability in rat at 4.0 mg/kg; type: ADME, organism-based; conditions: in vivo
[4] = Half life in dog at 0.90 mg/kg, iv; type: ADME, organism-based, Canis lupus familiaris; design: dose 0.9 mg/kg, route intravenous; conditions: in vivo, 0.9 mg/kg
[5] = Cmax in mouse at 150 mg/kg, po; type: ADME, organism-based; design: dose 150 mg/kg, route oral; conditions: in vivo
[6] = AUC in mouse at 150 mg/kg, po; type: ADME, organism-based; design: dose 150 mg/kg, route oral; conditions: plasma
[7] = Half life in dog at 0.50 mg/kg, iv; type: ADME, organism-based, Canis lupus familiaris; design: dose 0.5 mg/kg, route intravenous; conditions: in vivo, 0.5 mg/kg
[8] = Volume of distribution at steady state in dog at 0.50 mg/kg, iv; type: ADME, organism-based, Canis lupus familiaris; design: dose 0.5 mg/kg, route intravenous; conditions: in vivo, 0.5 mg/kg, read-out: Vdss
[9] = Plasma clearance in rat at 2.0 mg/kg, iv; type: ADME, organism-based; design: dose 2 mg/kg, route intravenous
[10] = Volume of distribution at steady state in rat at 2.0 mg/kg, iv; type: ADME, organism-based; design: dose 2 mg/kg, route intravenous; conditions: in vivo, read-out: Vdss
[11] = Plasma clearance in dog at 0.50 mg/kg, iv; type: ADME, organism-based, Canis lupus familiaris; design: dose 0.5 mg/kg, route intravenous; conditions: 0.5 mg/kg
[12] = Oral bioavailability in dog at 1.0 mg/kg; type: ADME, organism-based, Canis lupus familiaris; conditions: in vivo
[13] = Plasma concentration in human HCT116 cells xenografted CD1 mouse at 15 mg/kg, ip after 24 hrs; type: ADME, organism-based, HCT-116; design: dose 15 mg/kg, route intraperitoneal
[14] = Plasma concentration in human HCT116 cells xenografted CD1 mouse at 300 mg/kg, po after 24 hrs; type: ADME, organism-based, HCT-116; design: dose 300 mg/kg, route oral
[15] = Plasma concentration in human HCT116 cells xenografted CD1 mouse at 150 mg/kg, po after 6 hrs; type: ADME, organism-based, HCT-116; design: dose 150 mg/kg, route oral
[16] = Plasma concentration in human HCT116 cells xenografted CD1 mouse at 150 mg/kg, po after 24 hrs; type: ADME, organism-based, HCT-116; design: dose 150 mg/kg, route oral
[17] = test system: Canis familiaris; assay: Plasma concentration in CV dog at 3 mg/kg, iv; type: ADME, organism-based, Canis lupus familiaris; design: dose 3 mg/kg, route intravenous; conditions: in vivo
[18] = Plasma concentration in human HCT116 cells xenografted CD1 mouse at 15 mg/kg, ip after 6 hrs; type: ADME, organism-based, HCT-116; design: dose 15 mg/kg, route intraperitoneal
[19] = Distribution coefficient, log D of the compound; type: physicochemical; conditions: octanol/water
[20] = Plasma concentration in human HCT116 cells xenografted CD1 mouse at 15 mg/kg, ip after 72 hrs; type: ADME, organism-based, HCT-116; design: dose 15 mg/kg, route intraperitoneal
[21] = Plasma concentration in human HCT116 cells xenografted CD1 mouse at 300 mg/kg, po after 6 hrs; type: ADME, organism-based, HCT-116; design: dose 300 mg/kg, route oral
[22] = test system: Canis familiaris; assay: Plasma concentration in CV dog at 10 mg/kg, iv; type: ADME, organism-based, Canis lupus familiaris; design: dose 10 mg/kg, route intravenous; conditions: in vivo
[23] = Plasma concentration in human HCT116 cells xenografted CD1 mouse at 15 mg/kg, ip after 48 hrs; type: ADME, organism-based, HCT-116; design: dose 15 mg/kg, route intraperitoneal
[24] = Solubility of the compound; type: physicochemical

Row | half-life [2] [h] | bioavailability [3] [%] | Cmax [5] [µM] | AUC [6] [µM·h] | half-life [7] [h] | Vd [8] [L/kg] | clearance [9] [mL/min/kg] | Vd [10] [L/kg] | clearance [11] [mL/min/kg] | bioavailability [12] [%] | SMILES | other results
1 |  |  | 34 | 88 |  |  |  |  |  |  | Nc1ccc(-c2cccs2)cc1NC(=O)c1ccc(N2CCC3(CCNC3=O)CC2)nc1 | 
2 |  |  | 2 | 10 |  |  |  |  |  |  | Nc1ccc(-c2cccs2)cc1NC(=O)c1ccc(N2CCC3(CC2)CNC(=O)N3)nc1 | 
3 | 2.6 | 13 | 6 | 14 | 6.8 | 2.3 | 7.4 | 0.47 | 9.8 | 18 | Nc1ccc(-c2cccs2)cc1NC(=O)c1ccc(N2CCC3(CC2)COC(=O)N3)nc1 | 

The remaining lines, values behind:

Row | SMILES | half-life [2] [h] | bioavailability [3] [%] | Cmax [5] [µM] | AUC [6] [µM·h] | half-life [7] [h] | Vd [8] [L/kg] | clearance [9] [mL/min/kg] | Vd [10] [L/kg] | clearance [11] [mL/min/kg] | bioavailability [12] [%] | other results
4 | C[C@H]1CN(c2ccc(C(=O)Nc3ccccc3N)cn2)CCN1C(=O)OCc1ccccc1 | 0.93 | 37 |  |  |  |  |  |  |  |  | clearance [1]: 7.4 mL/min/kg; half-life [4]: 5.6 h
5 | Nc1ccc(-c2cccs2)cc1NC(=O)c1ccc(N2CCC3(CCNC3)CC2)nc1 | 6.2 | 23 |  |  | 6.7 | 3.3 | 31 | 8.6 | 5.9 | 100 | concentration at 24 h [13]: 0.32 µM; concentration at 24 h [14]: 0.78 µM; concentration at 6 h [15]: 11 µM; concentration at 24 h [16]: 0.22 µM; concentration [17]: 6 µM; concentration at 6 h [18]: 3.4 µM; logD [19]: 1.45; concentration at 72 h [20]: 0.03 µM; concentration at 6 h [21]: 21 µM; concentration [22]: 30 µM; concentration at 48 h [23]: 0.05 µM; solubility [24]: 186 µM (≈ 80.6 µg/mL)
